# Experimental data as given in patent publication US9481669B2, “Pladienolide pyridine compounds and methods of use” (Eisai R&D Management Co., Ltd., priority 2014, dated 2016).
# Entries after “also recorded” stand apart in the source; their conditions may differ. Where two headings read alike, the source gives them in different places.
# Key:
# [1] = test system: WiDr-R cells (colon cancer cells, SF3B1 R1074H mutation); test: Cell viability assay (CellTiter-Glo, 72 hr), WiDr-R counter-screen; format: cell-based
# Protocol: (§1) Cells (WiDr and Panc05.04 obtained from ATCC) were seeded in 96-well plates, with 2000 cells/100 μL/well, and incubated overnight. Spent media was removed, and fresh media containing 9 different concentrations of compound (100 μL/well) were added, with DMSO concentration from compound stock solution adjusted to be 0.1%. Each compound treatment was done in duplicate or triplicate at each concentration.
# (§2) Another plate with cells seeded was dedicated as a time zero (Tz) plate, to which was added 0.1% DMSO in media (100 μL/well) followed by CellTiter-Glo® reagent (Promega Corporation, Madison, Wis.) (50 μL/well) for ATP measurement as a surrogate of cell viability. Average value from measurement of multiple wells of this plate is used as Tz.
# (§3) Compound-treated plates were incubated for 72 hr at 37° C. Then, CellTiter-Glo® reagent (50 μL/well) was added and ATP was measured. Average value from measurement of the duplicate or triplicate compound-treated wells is used as Ti, and seeded plates with medium having 0.1% DMSO without compound is used as control growth (C).
# (§4) Percentage growth inhibition/Percentage viability was calculated as: [(Ti−Tz)/(C−Tz)]×100 for concentrations for which Ti>/=Tz [(Ti−Tz)/Tz]×100 for concentrations for which Ti<Tz. *time zero (Tz), control growth (C), and test growth in the presence of compound (Ti) Percentage growth inhibition/Percentage viability are plotted versus compound concentration to determine Emax.
# (§5) Growth inhibition of 50% (GI50) was calculated from [(Ti−Tz)/(C−Tz)]×100=50, which is the drug concentration resulting in a 50% reduction in the net increase of ATP in control growth (C) during the compound treatment.
# (§6) The counter-screening of compounds in this viability assay with a “resistant” WiDr-R cell line may indicate whether these compounds have off-target effect(s).
# [2] = pH stability measurement (UPLC, 0.1 N HCl); format: physicochemical; conditions: 0.1 N HCl, pH 1, 24 hours
# Protocol: Compounds were provided in 96-well plates and tested in triplicate. Four microliters of a 10 mM stock solution of compound in DMSO were distributed into each of three wells. The plate was stored at or below −20° C. until the day of the analysis. Methanol (HPLC grade) and 0.1 N HCl (EMD catalog HX0603A-6) were used for dilutions. Acetonitrile (HPLC grade), water (Milli-Q filtered), trifluoroacetic acid (spectral grade) and 0.2M phosphate buffer (Wako, catalog no. 163-14471) were used to prepare the mobile phase for the two analyses.
# Stability data was obtained using a Waters Acquity UPLC equipped with a UV detector (Waters TUV) and single quadrupole MS detector (Waters SQD). The 96-well plate containing the compound(s) of interest was(were) removed from the freezer and allowed to warm to room temperature for one hour. The UPLC was primed, equilibrated and the system performance was verified by injecting a standard. After 1 hour, each of the three wells was diluted with 266 μL 0.1 N HCl to give pH=1. The plate was covered and placed on a shaker (Eppindorf Thermomixer R) for 45 minutes at 600 rpm. The plate was removed from the shaker, and the contents of each well were filtered through a filtration plate (Millipore catalog no. MSSLBPC50) by vacuum and injected into the UPLC. After approximately 24 hours, the contents of the wells were re-injected into the UPLC.
# Stability in the various buffers was measured by comparing the peak area- % of the analyte in methanol versus the peak area- % of the analyte at the same retention time in 0.1 N HCl buffer in the 24 hr time point injection.
# [3] = test system: Panc 05.04 cells (mt SF3B1; Q699H and K700E mutations in SF3B1); test: Cell viability assay (CellTiter-Glo, 72 hr), Panc 05.04; format: cell-based; conditions: for GI50 / Emax: Panc 05.04, 72 hr; for Emax: negative value indicates cellular lethality
# Protocol: as §1, §2, §3, §4, §5
# Emax refers to the maximum achievable response to a compound in a tested dose range, with a negative value indicating cellular lethality. A larger negative Emax value indicates greater cellular lethality for a particular compound.
# [4] = Mouse pharmacokinetic (PK) study; format: in vivo, CD-1 mice; conditions: for AUC0-inf/D / Cmax/D / AUC(0-inf) / AUC(0-t) / half-life / clearance / Vd / Cmax / Tmax / bioavailability / BA (%) / AUC: CD-1 mice; for oral bioavailability and pharmacokinetic properties (in words): mouse model, IV and PO dosing; for AUC(0-inf) / AUC(0-t) / half-life / clearance / Vd / Cmax / Tmax / bioavailability / AUC: mouse, plasma; for Vd: read-out: Vss; for AUC: read-out: AUCfinite
# Protocol: (§7) Compound 2 was dosed at 5 mg/kg IV (intravenous) or 10 mg/kg PO (oral administration) to CD-1 mice. Following administration, blood samples were collected at pre-determined time points from five mice via serial bleeding of the tail vein. Blood was collected at 0.083 (0.167 PO only), 0.5, 1, 2, 4, 6, 8, and 24 hours post administration. The blood samples were centrifuged at 5000 RPM for 5 minutes to collect plasma within 30 minutes of blood collection. After extraction, samples were assayed using LCMS. PK parameters were calculated using non-compartmental analysis in WinNonlin v6.3.
# as §7, with “Compound 1” for “Compound 2”, “IV” for “IV (intravenous)”, “or 12” for “or 10”, “PO” for “PO (oral administration)”, “bleeding from” for “bleeding of”, “hours post-dose.” for “hours post administration.”
# Compound 3 was dosed at 5.964 mg/kg IV or 13.307 mg/kg PO to CD-1 mice. Following administration, blood samples were collected at pre-determined time points from five mice via serial bleeding from the tail vein. Blood was collected at 0.083 (0.167 PO only), 0.5, 1, 2, 4, 6, 8, and 24 hours post-dose. The blood samples were centrifuged at 5000 RPM for 5 minutes to collect plasma within 30 minutes of blood collection. After extraction, samples were assayed using LCMS. PK parameters were calculated using non-compartmental analysis in WinNonlin v6.3.
# Compound 4 was dosed at 5 mg/kg IV or 10 mg/kg PO to CD-1 mice. Following administration, blood samples were collected at pre-determined time-points from five mice via serial bleeding from the tail vein. Blood was collected at 0.083 (0.167 PO only), 0.5, 1, 2, 4, 6, 8, and 24 hours post-dose. The blood samples will be centrifuged at 5000 RPM for 5 minutes to collect plasma within 30 minutes of blood collection. After extraction, samples were assayed using LCMS. PK parameters were calculated using non-compartmental analysis in WinNonlin v6.3.
# [5] = test system: WiDr cells (colon cancer cells, wildtype SF3B1); test: Cell viability assay (CellTiter-Glo, 72 hr), WiDr; format: cell-based; conditions: Homo sapiens
# Protocol: as §1, §2, §3, §4, §5, §6
smiles,measurement,setting,value
"C/C(=C\C=C\[C@@H](C)c1ccccn1)[C@H]1OC(=O)C[C@H](O)CC[C@@](C)(O)[C@@H](OC(=O)N2CCN(C3CCCCCC3)CC2)/C=C/[C@@H]1C [Compound 1, (2S,3S,6S,7R,10R,E)-7,10-dihydroxy-3,7-dimethyl-12-oxo-2-((R,2E,4E)-6-(pyridin-2-yl)hepta-2,4-dien-2-yl)oxacyclododec-4-en-6-yl 4-cycloheptylpiperazine-1-carboxylate]",GI50,[1],> 1000 nM
same,"% parent remaining (pH = 1, 24 hours)",[2],91%
same,GI50,[3],19.5 nM
same,Emax,[3],-86.8%
same,cellular lethality (Emax comparison),[3]; Panc 05.04 cells,greater cellular lethality than Compound 2
same,AUC0-inf/D,[4]; 5 mg/kg IV (Table 5),934.15 ng · h/mL/D
same,AUC0-inf/D,[4]; 12 mg/kg PO,487.06 ng · h/mL/D
same,Cmax/D,[4]; 12 mg/kg PO,141.47 ng/mL/D
same,oral bioavailability and pharmacokinetic properties (in words),[4],showed oral bioavailability and favorable pharmacokinetic properties; also recorded: possess oral bioavailability and favorable pharmacokinetic properties
same,AUC(0-inf),[4]; 5 mg/kg IV (Table 5),4670 ng·h/mL
same,AUC(0-t),[4]; 5 mg/kg IV (Table 5),4450 ng·h/mL
same,half-life,[4]; 5 mg/kg IV (Table 5),2.54 h
same,clearance,"[4]; 5 mg/kg IV (Table 5), read-out: CL (converted)",17.8 mL/min/kg
same,Vd,[4]; 5 mg/kg IV (Table 5),2.1 L/kg
same,AUC(0-inf),[4]; 12 mg/kg PO,6230 ng·h/mL
same,AUC(0-t),[4]; 12 mg/kg PO,6210 ng·h/mL
same,Cmax,[4]; 12 mg/kg PO,1810 ng/mL
same,Tmax,[4]; 12 mg/kg PO,0.5 h
same,bioavailability,[4]; 12 mg/kg PO,52.1%
same,half-life,[4]; 12 mg/kg PO,3 h
same,GI50,[5],15.8 nM
"C/C(=C\C=C\[C@@H](C)c1ccccn1)[C@H]1OC(=O)C[C@H](O)CC[C@@](C)(O)[C@@H](OC(=O)N2CCN(C)CC2)/C=C/[C@@H]1C [Compound 2, (2S,3 S,6S,7R,10R,E)-7,10-dihydroxy-3,7-dimethyl-12-oxo-2-((R,2E,4E)-6-(pyridin-2-yl)hepta-2,4-dien-2-yl)oxacyclododec-4-en-6-yl 4-methylpiperazine-1-carboxylate]",GI50,[1],> 1000 nM
same,"% parent remaining (pH = 1, 24 hours)",[2],96%
same,GI50,[3],32.7 nM
same,Emax,[3],-66.1%
same,AUC0-inf/D,[4]; 5 mg/kg IV,632.71 ng · h/mL/D
same,AUC0-inf/D,[4]; 10 mg/kg PO,254.49 ng · h/mL/D
same,Cmax/D,[4]; 10 mg/kg PO,84.07 ng/mL/D
same,oral bioavailability and pharmacokinetic properties (in words),[4],shows oral bioavailability and favorable pharmacokinetic properties; also recorded: possess oral bioavailability and favorable pharmacokinetic properties
same,AUC(0-inf),[4]; 5 mg/kg IV,3160 ng·h/mL
same,AUC(0-t),[4]; 5 mg/kg IV,3160 ng·h/mL
same,half-life,[4]; 5 mg/kg IV,3.88 h
same,clearance,"[4]; 5 mg/kg IV, read-out: CL (converted)",26.3 mL/min/kg
same,Vd,[4]; 5 mg/kg IV,2.37 L/kg
same,AUC(0-inf),[4]; 10 mg/kg PO,2540 ng·h/mL
same,AUC(0-t),[4]; 10 mg/kg PO,2510 ng·h/mL
same,Cmax,[4]; 10 mg/kg PO,841 ng/mL
same,Tmax,[4]; 10 mg/kg PO,1 h
same,bioavailability,[4]; 10 mg/kg PO,40.2%
same,half-life,[4]; 10 mg/kg PO,4.04 h
same,GI50,[5],31.8 nM
"C/C(=C\C=C\[C@@H](C)c1ccccn1)[C@H]1OC(=O)C[C@H](O)CC[C@@](C)(O)[C@@H](OC(=O)N2CCC(N3CCCCC3)CC2)/C=C/[C@@H]1C [Compound 4, (2S,3 S,6S,7R,10R,E)-7,10-dihydroxy-3,7-dimethyl-12-oxo-2-((R,2E,4E)-6-(pyridin-2-yl)hepta-2,4-dien-2-yl)oxacyclododec-4-en-6-yl[1,4′-bipiperidine]-1′-carboxylate]",GI50,[1],> 1000 nM
same,"% parent remaining (pH = 1, 24 hours)",[2],99%
same,GI50,[3],11.8 nM
same,Emax,[3],-86.2%
same,AUC0-inf/D,[4]; 5 mg/kg IV (Table 7),1.325 ug/mL * hr/D
same,AUC0-inf/D,[4]; 10 mg/kg PO (Table 7),0.795 ug/mL * hr/D
same,BA (%),[4]; 10 mg/kg PO (Table 7),60.024%
same,oral bioavailability and pharmacokinetic properties (in words),[4],showed oral bioavailability and favorable pharmacokinetic properties; also recorded: possess oral bioavailability and favorable pharmacokinetic properties
same,AUC(0-inf),[4]; 5 mg/kg IV (Table 7),6620 ng·h/mL
same,AUC(0-t),[4]; 5 mg/kg IV (Table 7),6610 ng·h/mL
same,half-life,[4]; 5 mg/kg IV (Table 7),3.01 h
same,clearance,"[4]; 5 mg/kg IV (Table 7), read-out: CLtot (converted)",12.6 mL/min/kg
same,Vd,[4]; 5 mg/kg IV (Table 7),1.89 L/kg
same,AUC(0-inf),[4]; 10 mg/kg PO (Table 7),7950 ng·h/mL
same,AUC(0-t),[4]; 10 mg/kg PO (Table 7),7910 ng·h/mL
same,Cmax,[4]; 10 mg/kg PO (Table 7),1250 ng/mL
same,Tmax,[4]; 10 mg/kg PO (Table 7),2 h
same,half-life,[4]; 10 mg/kg PO (Table 7),2.98 h
same,GI50,[5],13 nM
"C/C(=C\C=C\[C@@H](C)c1ccccn1)[C@H]1OC(=O)C[C@H](O)CC[C@@](C)(O)[C@@H](OC(=O)N2CCC(N3CCCCCC3)CC2)/C=C/[C@@H]1C [Compound 3, (2S,3S,6S,7R,10R,E)-7,10-dihydroxy-3,7-dimethyl-12-oxo-2-((R,2E,4E)-6-(pyridin-2-yl)hepta-2,4-dien-2-yl)oxacyclododec-4-en-6-yl 4-(azepan-1-yl)piperidine-1-carboxylate]",GI50,[1],> 1000 nM
same,"% parent remaining (pH = 1, 24 hours)",[2],98%
same,GI50,[3],20.8 nM
same,Emax,[3],-90.8%
same,AUC0-inf/D,[4]; 5.964 mg/kg IV,1.047 μg/mL * hr/D
same,AUC0-inf/D,[4]; 13.307 mg/kg PO,0.615 μg/mL * hr/D
same,BA (%),[4]; 13.307 mg/kg PO,58.758%
same,oral bioavailability and pharmacokinetic properties (in words),[4],showed oral bioavailability and favorable pharmacokinetic properties; also recorded: possess oral bioavailability and favorable pharmacokinetic properties
same,AUC(0-inf),[4]; 5.964 mg/kg IV,6240 ng·h/mL
same,half-life,[4]; 5.964 mg/kg IV,3.66 h
same,AUC,[4]; 5.964 mg/kg IV,6210 ng·h/mL
same,clearance,"[4]; 5.964 mg/kg IV, read-out: CLtot (converted)",15.9 mL/min/kg
same,Vd,[4]; 5.964 mg/kg IV,2.98 L/kg
same,AUC(0-inf),[4]; 13.307 mg/kg PO,8190 ng·h/mL
same,Cmax,[4]; 13.307 mg/kg PO,1570 ng/mL
same,Tmax,[4]; 13.307 mg/kg PO,2 h
same,half-life,[4]; 13.307 mg/kg PO,3.32 h
same,AUC,[4]; 13.307 mg/kg PO,8140 ng·h/mL
same,GI50,[5],26.3 nM
